# Columns and labels:
# [1] = biological target: T1, E. coli ALBP (allose binding protein) fusion protein CalsBY-QV (Gln-Val between ECFP and ALBP), SEQ ID NO: 36 (Escherichia coli, UniProt P39265); assay: Allose titration and sugar specificity of FRET sensor CalsBY-QV
# T1 construct: made in house; host or cells: E. coli JM109 (DE3)
# [2] = biological target: T2, E. coli RBP (ribose binding protein) fusion protein CrbsBY-ND (Asn-Asp between ECFP and RBP), SEQ ID NO: 38 (Escherichia coli, UniProt P02925); assay: Ribose titration and sugar specificity of FRET sensor CrbsBY-ND; details: for affinity (substrate specificity): in words, FIG. 12C
# T2 construct: made in house; host or cells: E. coli JM109 (DE3)
# Experimental: (§1) The fluorescence analysis of the MBP fusion proteins expressed and purified in Example 2 was performed using fluorescence spectrophotometer Cary Eclipse (Varian, Australia) at 25° C., and the MBP fusion proteins were diluted in PBS buffer (pH 7.4) to the same concentrations of 0.2 μM. To define the FRET efficiency in the fluorescence analysis, the emission intensity ratio between the emission intensity of ECFP at 480 nm, measured at an excitation wavelength of 436 nm, and the emission intensity of EYFP at 530 nm, caused by FRET, was substituted into Equation 3 below for convenience: Ratio=[530 nm/480 nm] [Equation 3]
# (§2) Profiles of the ratios at wide substrate concentrations were fit by a four-parameter Hill equation with SigmaPlot (SSI, USA) and the binding substance concentration corresponding to the medium between ratio10 mM and ratioapo was determined to be the dissociation constant (Kd) of the fusion proteins.
# (§3) The selection of PBPs to be introduced into the MBP position was performed by collecting data from SCOP (Structural Classification of Proteins; http://scop.mrc-lmb.cam.ac.uk/scop/), and then investigating the kinetic change of three-dimensional structures which is accompanied by substrate binding in PDB (Protein Data Bank, http://www.rcsb.org/pdb/). For example, three kinds of E. coli-derived PBPs such as ALBP, RBP, and ARBP were introduced into the MBP site of the MBP fusion proteins according to the present invention. For this purpose, the genetic sequence information of said PBPs was secured from Swiss-Prot (http://kr.expasy.org/), and on the basis of the information, primers capable of amplifying genes encoding the PBPs were constructed. The genes were amplified by performing PCR from the chromosome of E. coli MG1655 using the constructed primers.
# (§4) The fusion protein expression vectors constructed in the form of libraries as described above were transformed into E. coli JM109 (DE3), and 3-5 bacterial strains transformed with vectors were randomly selected from each of the libraries without carrying out the screening process described in Example 4, and were expressed and purified according to the method of Example 2. Then, the various PBP fusion proteins were subjected to analyze the fluorescence characteristics to each of substances, and sugar sensors (the fluorescent indicator proteins for detection of sugar) having the highest signal intensity were selected. As a result, as shown on FIGS. 11A, 11B and 11C, and Table 2 below, CalsBY-QV of SEQ ID NO: 36, CaraFY-PR of SEQ ID NO: 37 and CrbsBY-ND of SEQ ID NO: 38 could be secured.
# (§5) To examine the substrate affinity of said three kinds of fusion proteins, the substrate specificity thereof for a variety of sugars was analyzed.
# [3] = biological target: T3, E. coli ARBP (arabinose binding protein) fusion protein CaraFY-PR (Pro-Arg between ECFP and ARBP), SEQ ID NO: 37 (Escherichia coli, UniProt P02924); assay: Arabinose titration and sugar specificity of FRET sensor CaraFY-PR; details: for affinity (substrate specificity): in words, FIG. 12B
# T3 construct: made in house; host or cells: E. coli JM109 (DE3)
# Experimental: as §1, §2, §3, §4, §5
# [4] = biological target: T4, MBP (maltose binding protein) fusion protein CMY-LH (Leu-His between ECFP and MBP), SEQ ID NO: 32 (Escherichia coli, UniProt P0AEX9); assay: Maltose titration and sugar specificity of FRET sensor CMY-LH; details: for affinity (substrate specificity): in words, FIG. 8A, 10 mM for d-glucose and melezitose, change attributed to contamination of trace maltose
# T4 construct: made in house; host or cells: E. coli JM109 (DE3)
# Experimental: as §1, §2
# [5] = biological target: T5, MBP (maltose binding protein) fusion protein CMY-LH variant CMY-LH/W62A (Trp62Ala in MBP), SEQ ID NO: 33 (Escherichia coli, UniProt P0AEX9, W88A); assay: Maltose titration of FRET sensor CMY-LH/W62A; details: range between 10 and 90% saturation
# T5 construct: made in house; host or cells: E. coli JM109 (DE3)
# Experimental: as §1, §2
# [6] = biological target: T6, MBP (maltose binding protein) fusion protein CMY-QI (Gln-Ile between ECFP and MBP), SEQ ID NO: 31 (Escherichia coli, UniProt P0AEX9); assay: Maltose titration of FRET sensor CMY-QI; details: range between 10 and 90% saturation
# T6 construct: made in house; host or cells: E. coli JM109 (DE3)
# Experimental: as §1, §2
# [7] = biological target: T7, MBP (maltose binding protein) fusion protein CMY-LH variant CMY-LH/W62L (Trp62Leu in MBP), SEQ ID NO: 35 (Escherichia coli, UniProt P0AEX9, W88L); assay: Maltose titration and sugar specificity of FRET sensor CMY-LH/W62L; details: range between 10 and 90% saturation
# T7 construct: made in house; host or cells: E. coli JM109 (DE3)
# Experimental: as §1, §2
# [8] = biological target: T8, SBP (sucrose binding protein; MBP mutant Asp14Leu, Lys15Phe, Trp62Tyr, Glu111Tyr) fusion protein CSY-LH, SEQ ID NO: 39 (Escherichia coli, UniProt P0AEX9, D40L/E137Y/K41F/W88Y); assay: Sucrose and maltose titration and sugar specificity of FRET sensor CSY-LH; details: for Quantification range: range between 10 and 90% saturation
# T8 construct: made in house; host or cells: E. coli JM109 (DE3)
# Experimental: as §1, §2
# (§6) The MBP-encoding gene to be used as a template was a pMALc2x vector (NEB, USA), and to make the SBP gene, PCR was performed using primers of SEQ ID NOs: 27, 28, 29 and 11. Because the above-amplified gene contains partial mutations in MBP, including a substitution of Asp14 with Leu, a substitution of Lys15 with Phe, a substitution of Trp62 with Tyr, and a substitution of Glu111 with Tyr, it encodes the SBP gene capable of binding to sucrose, as reported in the prior art (Guntas, G. et al., PNAS, 102:11224, 2005).
# (§7) The above SBP fusion protein expression vectors were transformed into E. Coli JM109 (DE3), expressed and purified according to the method of Example 3.
# The CSY-LH was analyzed for binding affinity for a variety of sugars.
# [9] = biological target: T9, MBP (maltose binding protein) fusion protein CMY-0 (ECFP-MBP-EYFP without connecting peptides) (Escherichia coli, UniProt P0AEX9); assay: Maltose titration of FRET sensor CMY-0 (fluorescence ratio 530/480 nm); details: range between 10 and 90% saturation
# T9 construct: mature MBP amplified from pMALc2x (NEB); expressed in E. coli JM109(DE3), purified
# Experimental: as §1, §2
# [10] = biological target: T10, MBP (maltose binding protein) fusion protein CMY-LH variant CMY-LH/W62H (Trp62His in MBP), SEQ ID NO: 34 (Escherichia coli, UniProt P0AEX9, W88H); assay: Maltose titration and sugar specificity of FRET sensor CMY-LH/W62H; details: range between 10 and 90% saturation
# T10 construct: made in house; host or cells: E. coli JM109 (DE3)
# Experimental: as §1, §2
# [11] = biological target: T11, SBP (sucrose binding protein; MBP mutant Asp14Leu, Lys15Phe, Trp62Tyr, Glu111Tyr) fusion protein CSY-BII (Escherichia coli, UniProt P0AEX9, D40L/E137Y/K41F/W88Y); assay: Sucrose and maltose titration of FRET sensor CSY-BII; details: for Quantification range: range between 10 and 90% saturation
# T11 construct: SBP = engineered MBP made on pMALc2x template; expressed in E. coli JM109(DE3), purified
# Experimental: as §1, §2, §6, §7
# [12] = biological target: T12, MBP (maltose binding protein) fusion protein CMY-BII (ECFP-SR-MBP-GS-EYFP) (Escherichia coli, UniProt P0AEX9); assay: Maltose titration of FRET sensor CMY-BII; details: range between 10 and 90% saturation
# T12 construct: mature MBP from pMALc2x; expressed in E. coli JM109(DE3), purified
# Experimental: as §1, §2
# [13] = biological target: T13, SBP (sucrose binding protein; MBP mutant Asp14Leu, Lys15Phe, Trp62Tyr, Glu111Tyr) fusion protein CSY-B (Escherichia coli, UniProt P0AEX9, D40L/E137Y/K41F/W88Y); assay: Sucrose and maltose titration of FRET sensor CSY-B; details: for Quantification range: range between 10 and 90% saturation
# T13 construct: SBP = engineered MBP made on pMALc2x template; expressed in E. coli JM109(DE3), purified
# Experimental: as §1, §2, §6, §7
# [14] = biological target: T14, MBP (maltose binding protein) fusion protein CMY-B (ECFP-MBP-EYFP) (Escherichia coli, UniProt P0AEX9); assay: Maltose response of FRET sensor CMY-B; details: in words; control for yeast imaging, 10 mM maltose
# T14 construct: mature MBP from pMALc2x; expressed in E. coli JM109(DE3), purified
# Experimental: as §1, §2
# [15] = ratio(10 mM) minus ratioapo, saturating sugar
structure (smiles),measurement,setting,value
OC[C@H]1OC(O)[C@H](O)[C@H](O)[C@@H]1O (some centres unmarked) [allose],Quantification range,"[1]; allose, range between 10 and 90% saturation",0.04 to 2.81 µM
same,affinity (substrate specificity),[2],very high affinity
OC1OC[C@H](O)[C@H](O)[C@H]1O (some centres unmarked) [arabinose],Kd,[3],0.36 ± 0.01 µM
same,Quantification range,"[3]; arabinose, range between 10 and 90% saturation",0.05 to 2.74 µM
same,Δratio,"[3]; arabinose, ratio(10 mM) minus ratioapo, saturating sugar",0.29
OC[C@H]1OC(O)[C@H](O)[C@@H](O)[C@@H]1O (stereo partly drawn) [d-glucose],affinity (substrate specificity),[4],low level of affinity
OC[C@H]1OC(O)[C@H](O)[C@@H](O)[C@H]1O (some centres unmarked) [galactose],affinity (substrate specificity),[3],very high affinity
OC[C@H]1O[C@@H](O[C@H]2[C@H](O)[C@@H](O)C(O)O[C@@H]2CO)[C@H](O)[C@@H](O)[C@H]1O (some centres unmarked) [lactose],affinity (substrate specificity),[3],low affinity
OC[C@H]1O[C@H](O[C@H]2[C@H](O)[C@@H](O)C(O)O[C@@H]2CO)[C@H](O)[C@@H](O)[C@@H]1O (some centres unmarked) [maltose],Quantification range,[5],"31-2,080 μM"
same,Quantification range,[6],0.2 to 15.1 µM
same,Quantification range,[7],10 to 650 µM
same,Quantification range,[8],"80-5,080 μM"
same,Quantification range,[9],0.5 to 11.2 µM
same,Quantification range,[10],5 to 325 µM
same,Quantification range,[11],"155-3,800 μM"
same,Quantification range,[12],0.3 to 13.3 µM
same,Quantification range,"[4]; maltose, range between 10 and 90% saturation",0.2 to 13.2 µM
same,Quantification range,[13],"120-9,500 μM"
same,sensitivity to maltose,[14],no sensitivity
OC[C@H]1O[C@@](CO)(O[C@H]2O[C@H](CO)[C@@H](O)[C@H](O)[C@H]2O)[C@@H](O[C@H]2O[C@H](CO)[C@@H](O)[C@H](O)[C@H]2O)[C@@H]1O [melezitose],affinity (substrate specificity),[4],low level of affinity
OC[C@H]1O[C@H](OC[C@H]2OC(O)[C@H](O)[C@@H](O)[C@@H]2O)[C@H](O)[C@@H](O)[C@H]1O (some centres unmarked) [melibiose],affinity (substrate specificity),[3],low affinity
C[C@@H]1OC(O)[C@H](O)[C@H](O)[C@H]1O (some centres unmarked) [rhamnose],affinity (substrate specificity),[3],low affinity
OC1OC[C@@H](O)[C@@H](O)[C@H]1O (some centres unmarked) [ribose],affinity (substrate specificity),"[1]; in words, FIG. 12A, ribose at mM levels",low affinity
same,Kd,"[2]; ribose, 50% saturation",0.17 ± 0.01 µM
same,Quantification range,"[2]; ribose, range between 10 and 90% saturation",0.03 to 1.15 µM
same,Δratio,"[2]; ribose, ratio(10 mM) minus ratioapo, saturating sugar",−0.12
OC[C@H]1O[C@@](CO)(O[C@H]2O[C@H](CO)[C@@H](O)[C@H](O)[C@H]2O)[C@@H](O)[C@@H]1O [sucrose],Kd,[8],163 ± 3 µM
same,"Kd, fold higher than previously reported results","[8]; compared to Guntas et al., PNAS, 102:11224, 2005",about 25 fold
same,Quantification range,[8],"17-1,560 μM"
same,Δratio,[8]; [15],0.72
same,Kd,[11],234 ± 18 µM
same,Quantification range,[11],"30-1,880 μM"
same,Δratio,[11]; [15],0.14
same,Kd,[13],286 ± 16 µM
same,Quantification range,[13],"20-3,700 μM"
same,Δratio,[13]; [15],−0.11
OC1OC[C@@H](O)[C@H](O)[C@H]1O (some centres unmarked) [xylose],affinity (substrate specificity),[2],significant affinity
same,affinity (substrate specificity),[3],low affinity
